# The source made the active and inactive calls. The calls are words filed in the database; no cut-off is given here.
# Assays:
# [1] = tested on: NCI-H1944; test: Antiproliferative activity against BRM-dependent human NCI-H1944 cells assessed as growth inhibition incubated for 7 days by celltiter glo 2.0 assay; type: functional; conditions: NCI-H1944, 168 h, time 7 day
# [2] = tested on: Calu-6; test: Antiproliferative activity against human Calu-6 cells assessed as growth inhibition incubated for 7 days by celltiter glo 2.0 assay; type: functional; conditions: Calu-6, 168 h, time 7 day
# [3] = Plasma protein binding in mouse incubated for 15 mins by LC-MS/MS analysis; type: ADME, cell-free; conditions: read-out: PPB (converted)
# [4] = Clearance in mouse at 1 mg/kg, iv measured upto 60 mins by LC-MS/MS analysis; type: ADME, organism-based; conditions: in vivo, 1 h
# [5] = Half life in mouse at 1 mg/kg, iv measured upto 60 mins by LC-MS/MS analysis; type: ADME, organism-based; conditions: in vivo
# [6] = Drug concentration in mouse plasma measured for 24 hrs; type: ADME, cell-free
# [7] = Clearance in CD-1 mouse at 10 mg/kg, iv measured for 24 hrs; type: ADME, organism-based; conditions: in vivo
# [8] = Clearance in CD-1 mouse at 30 mg/kg, iv measured for 24 hrs; type: ADME, organism-based; conditions: in vivo
# [9] = Volume of distribution in CD-1 mouse at 10 mg/kg, iv measured for 24 hrs; type: ADME, organism-based; conditions: in vivo
# [10] = Volume of distribution in CD-1 mouse at 30 mg/kg, iv measured for 24 hrs; type: ADME, organism-based; conditions: in vivo
# [11] = Half life in CD-1 mouse at 10 mg/kg, iv measured for 24 hrs; type: ADME, organism-based; conditions: in vivo
# [12] = Half life in CD-1 mouse at 30 mg/kg, iv measured for 24 hrs; type: ADME, organism-based; conditions: in vivo
# [13] = Initial plasma concentration in CD-1 mouse at 10 mg/kg, iv measured for 24 hrs; type: ADME, organism-based
# [14] = Initial plasma concentration in CD-1 mouse at 30 mg/kg, iv measured for 24 hrs; type: ADME, organism-based
# [15] = AUClast in CD-1 mouse at 10 mg/kg, iv measured for 24 hrs; type: ADME, organism-based; conditions: in vivo
# [16] = AUClast in CD-1 mouse at 30 mg/kg, iv measured for 24 hrs; type: ADME, organism-based; conditions: in vivo
# [17] = Toxicity in CD-1 mouse xenografted with BRM-dependent human HCC2302 cells assessed as body weight loss at 10 mg/kg, ip administered once daily for 7 days; type: organism-based; conditions: in vivo, 168 h, time 7 day
# [18] = Toxicity in CD-1 mouse xenografted with BRM-dependent human HCC2302 cells assessed as animal death at 10 mg/kg, ip administered once daily for 7 days; type: organism-based; conditions: in vivo, 168 h, time 7 day
# [19] = tested on: Mus musculus; test: In-vivo PROTAC activity at BRM/VHL in CD-1 mouse xenografted with human HCC2302 cells at 20 mg/kg, iv measured for 96 hrs; type: functional
# [20] = tested on: Mus musculus; test: In-vivo PROTAC activity at BRM/VHL in CD-1 mouse xenografted with Murine stromal cell line at 20 mg/kg, iv measured for 96 hrs; type: functional
# [21] = Drug concentration in mouse tumor at 20 mg/kg, ip measured for 96 hrs; type: ADME, organism-based, Neoplasm; conditions: read-out: Ct
# [22] = tested on: HCC2302; test: Antitumor activity against human BRM-dependent HCC2302 cells xenografted in CD-1 mouse assessed as tumor growth inhibition at 20 mg/kg, ip administered twice per week for 21 days; type: functional, organism-based; conditions: time 21.0 day
# [23] = Toxicity in CD-1 mouse xenografted with BRM-dependent human HCC2302 cells assessed as body weight loss at 20 mg/kg, ip administered twice per week for 21 days; type: organism-based; conditions: in vivo, 504 h, time 21 day
# [24] = tested on: HCC2302; test: Antitumor activity against human BRM-dependent HCC2302 cells xenografted in CD-1 mouse assessed as tumor growth inhibition at 10 mg/kg, iv administered twice per week for 21 days; type: functional, organism-based; conditions: time 21.0 day
# [25] = tested on: HCC2302; test: Antitumor activity against human BRM-dependent HCC2302 cells xenografted in CD-1 mouse at 30 mg/kg, iv administered twice per week for 11 days; type: functional, organism-based; conditions: time 11.0 day
# [26] = tested on: Mus musculus; test: In-vivo PROTAC activity at BRM/VHL in CD-1 mouse xenografted with human HCC2302 cells assessed as reduction in BRM level in tumor at 10 mg/kg, iv administered twice weekly for 7 times for 21 days and measured after 24 hrs post dose by Western blot analysis; type: functional; parameters: scale not given: the % may be the effect or the level left; conditions: time 22 day
# [27] = tested on: Mus musculus; test: In-vivo PROTAC activity at BRM/VHL in CD-1 mouse xenografted with human HCC2302 cells assessed as reduction in BRM level in tumor at 20 mg/kg, iv administered twice weekly for 7 times for 21 days and measured after 24 hrs post dose by Western blot analysis; type: functional; parameters: scale not given: the % may be the effect or the level left; conditions: time 22 day
# [28] = tested on: Mus musculus; test: In-vivo PROTAC activity at BRM/VHL in CD-1 mouse xenografted with human HCC2302 cells assessed as reduction in BRM level in tumor at 30 mg/kg, iv administered 7 times and measured after 96 hrs by Western blot analysis; type: functional; parameters: scale not given: the % may be the effect or the level left
# [29] = tested on: Mus musculus; test: In-vivo PROTAC activity at BRG1 /VHL in CD-1 mouse xenografted with human HCC2302 cells assessed as reduction in BRG1 level in tumor at 10 mg/kg, iv administered twice weekly for 7 times for 21 days and measured after 24 hrs post dose by Western blot analysis; type: functional; parameters: scale not given: the % may be the effect or the level left; conditions: time 22 day
# [30] = tested on: Mus musculus; test: In-vivo PROTAC activity at BRG1 /VHL in CD-1 mouse xenografted with human HCC2302 cells assessed as reduction in BRG1 level in tumor at 20 mg/kg, iv administered twice weekly for 7 times for 21 days and measured after 24 hrs post dose by Western blot analysis; type: functional; parameters: scale not given: the % may be the effect or the level left; conditions: time 22 day
# [31] = tested on: Mus musculus; test: In-vivo PROTAC activity at BRG1 /VHL in CD-1 mouse xenografted with human HCC2302 cells assessed as reduction in BRG1 level in tumor at 30 mg/kg, iv administered 7 times and measured after 96 hrs by Western blot analysis; type: functional; parameters: scale not given: the % may be the effect or the level left
# [32] = tested on: HCC2302; test: Antitumor activity against human BRM-dependent HCC2302 cells xenografted in CD-1 mouse assessed as suppression of KRT80 mRNA level at 10 mg/kg, iv administered twice weekly for 7 times for 21 days and measured after 24 hrs post dose; type: functional; conditions: time 22 day
# [33] = tested on: HCC2302; test: Antitumor activity against human BRM-dependent HCC2302 cells xenografted in CD-1 mouse assessed as suppression of KRT80 mRNA level at 20 mg/kg, iv administered twice weekly for 7 times for 21 days and measured after 24 hrs post dose; type: functional; conditions: time 22 day
# [34] = tested on: HCC2302; test: Antitumor activity against human BRM-dependent HCC2302 cells xenografted in CD-1 mouse assessed as suppression of KRT80 mRNA level at 30 mg/kg, iv administered 7 times and measured after 96 hrs; type: functional
# [35] = tested on: HCC2302; test: Antitumor activity against human BRM-dependent HCC2302 cells xenografted in CD-1 mouse assessed as suppression of PLAU mRNA level at 10 mg/kg, iv administered twice weekly for 7 times for 21 days and measured after 24 hrs post dose; type: functional; conditions: time 22 day
# [36] = tested on: HCC2302; test: Antitumor activity against human BRM-dependent HCC2302 cells xenografted in CD-1 mouse assessed as suppression of PLAU mRNA level at 20 mg/kg, iv administered twice weekly for 7 times for 21 days and measured after 24 hrs post dose; type: functional; conditions: time 22 day
# [37] = tested on: HCC2302; test: Antitumor activity against human BRM-dependent HCC2302 cells xenografted in CD-1 mouse assessed as suppression of PLAU mRNA level at 30 mg/kg, iv administered 7 times and measured after 96 hrs; type: functional
# [38] = tested on: HCC2302; test: Antitumor activity against human BRM-dependent HCC2302 cells xenografted in CD-1 mouse assessed as tumor growth inhibition at 10 mg/kg, iv administered twice weekly for 7 times for 21 days and measured after 24 hrs post dose; type: functional; conditions: HCC2302, 528 h, time 22 day, read-out: TGI
# [39] = tested on: HCC2302; test: Antitumor activity against human BRM-dependent HCC2302 cells xenografted in CD-1 mouse assessed as tumor growth inhibition at 20 mg/kg, iv administered twice weekly for 7 times for 21 days and measured after 24 hrs post dose; type: functional; conditions: HCC2302, 528 h, time 22 day, read-out: TGI
# [40] = tested on: HCC2302; test: Antitumor activity against human BRM-dependent HCC2302 cells xenografted in CD-1 mouse assessed as tumor growth inhibition at 30 mg/kg, iv administered 7 times and measured after 96 hrs; type: functional; conditions: read-out: TGI
smiles,measurement,setting,value
Cc1ncsc1-c1ccc([C@H](C)NC(=O)[C@@H]2C[C@@H](O)CN2C(=O)[C@@H](c2cc(N3CCC(CN4CCC(O[C@H]5C[C@H](Oc6cc(N7C8CCC7CN(c7cc(-c9ccccc9O)nnc7N)C8)ccn6)C5)CC4)CC3)no2)C(C)C)cc1,GI50,[1],0.58 nM
same,GI50,[2],6.5 nM
same,fraction unbound at 0.25 h,[3],0.048
same,clearance,[4],9.6 mL/min/kg
same,half-life,[5],960 min
same,concentration at 24 h,[6],71 nM
same,clearance,[7],16 mL/min/kg
same,clearance,[8],15 mL/min/kg
same,Vd,[9],6.3 L/kg
same,Vd,[10],8.7 L/kg
same,half-life,[11],396 min
same,half-life,[12],534 min
same,C0 at 24 h,[13],12600 ng/mL
same,C0 at 24 h,[14],58 µg/mL
same,AUC(0-t) at 24 h,[15],10200 ng·h/mL
same,AUC(0-t) at 24 h,[16],30800 ng·h/mL
same,Activity,[17],Non-Toxic
same,Activity,[18],Non-Toxic
same,Activity,[19],82%
same,Activity,[20],22%
same,concentration at 96 h,[21],483 ng/g
same,TGI,[22],Active
same,Activity,[23],Non-Toxic
same,TGI,[24],inactive
same,Activity,[25],Active
same,Activity,[26],81%
same,Activity,[27],99%
same,Activity,[28],97%
same,Activity,[29],30%
same,Activity,[30],47%
same,Activity,[31],84%
same,Activity,[32],25%
same,Activity,[33],71%
same,Activity,[34],72%
same,Activity,[35],91%
same,Activity,[36],98%
same,Activity,[37],97%
same,inhibition in vivo at 10 mg/kg,[38],1%
same,inhibition in vivo at 20 mg/kg,[39],62%
same,inhibition in vivo at 30 mg/kg,[40],> 65%
